Data on 36 compounds can be found in PubChem BioAssay AID652224 (The Scripps Research Institute Molecular Screening Center, 2013).

Activity calls are given as the source filed them.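 Rule for the calls: active = at least 70% inhibition of the phosphatase PP5 at 50 µM; inactive = inhibition below 70% at 50 µM.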

Sequence of Serine/threonine-protein phosphatase 5 (Homo sapiens) (P53041 whole entry, looked up): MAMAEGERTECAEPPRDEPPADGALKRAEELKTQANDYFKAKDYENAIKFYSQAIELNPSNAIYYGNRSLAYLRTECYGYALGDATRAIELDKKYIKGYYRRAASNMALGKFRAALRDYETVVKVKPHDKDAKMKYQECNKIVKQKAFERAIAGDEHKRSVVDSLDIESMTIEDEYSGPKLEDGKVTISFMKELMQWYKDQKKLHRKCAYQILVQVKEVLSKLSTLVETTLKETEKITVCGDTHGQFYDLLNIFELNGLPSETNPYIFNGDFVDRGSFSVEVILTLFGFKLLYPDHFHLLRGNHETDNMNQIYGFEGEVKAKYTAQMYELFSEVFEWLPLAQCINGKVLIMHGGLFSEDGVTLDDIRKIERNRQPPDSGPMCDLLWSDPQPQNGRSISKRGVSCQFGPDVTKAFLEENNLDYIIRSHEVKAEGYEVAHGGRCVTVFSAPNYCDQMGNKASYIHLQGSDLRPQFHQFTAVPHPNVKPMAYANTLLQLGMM

The experiment has as its target Serine/threonine-protein phosphatase 5 (Homo sapiens) (UniProt P53041). As to the kind of experiment: PP5 phosphatase inhibitors at single dose, late-stage follow-up, selectivity assay for PP1 inhibitor project, biochemical, fluorescence, OMFP substrate, powder samples (AID 652224). The following applies: purified PP5c, OMFP dephosphorylation fluorescence; at 50 µM; stronger effect = higher value.
`CN1CCN(C(c2ccncc2)c2cc(Cl)c3cccnc3c2O)CC1` (stereo unspecified): the inhibition was 9.09% (inactive).

Consider `CN1CCC(NC(c2ccccn2)c2ccc3cccnc3c2O)CC1` (stereo unspecified), for which the inhibition was 9.57% (inactive).

Take `Oc1c(Cc2ccccn2)ccc2cccnc12`: the inhibition was 27% (inactive).

Turning to `Oc1c(CN2CCN(c3ccccn3)CC2)cc(Cl)c2cccnc12`, the inhibition was 32.4% (inactive).

Consider `CN1CCN(C(c2ccccc2)c2cc(Cl)c3cccnc3c2O)CC1` (stereo unspecified), for which the inhibition is 15.5% (inactive).

As for `CN1CCN(C(c2ccccn2)c2cc(Cl)c3cccnc3c2O)CC1` (stereo unspecified), the inhibition is 75.8%.

Take `CC(C)(C)OC(=O)N1CCN(C(c2ccccn2)c2cc(Cl)c3cccnc3c2O)CC1` (stereo unspecified): the inhibition was 37.1% (inactive).

For the compound `CC1CCN(C(c2ccccn2)c2cc(Cl)c3cccnc3c2O)CC1` (stereo unspecified), the inhibition is 68.5% (inactive).

Regarding `Cc1cccc(C(c2ccc3cccnc3c2O)N2CCN(C)CC2)n1` (stereo unspecified), the inhibition is -2.26% (inactive).

Consider `Oc1c(C(c2ccccn2)N2CCOCC2)cc(Cl)c2cccnc12` (stereo unspecified), for which the inhibition is 72.5%.

Regarding `CN1CCN(C(c2cccnc2)c2cc(Cl)c3cccnc3c2O)CC1` (stereo unspecified), the inhibition is 9.84% (inactive).

`CN1CCN(Cc2cc(Cl)c3cccnc3c2O)CC1`: the inhibition was 20.1% (inactive).

Take `COc1ccc(C(c2ccc3cccnc3c2O)N2CCN(C)CC2)nc1` (stereo unspecified): the inhibition was 48.5% (inactive).

Take `CN1CCN(C(c2ccccn2)c2ccc3cccnc3c2O)CC1` (stereo unspecified): the inhibition was 49.2% (inactive).

`COCOc1c(C(c2ccccn2)N2CCN(C)CC2)ccc2cccnc12` (stereo unspecified): the inhibition was -6.11% (inactive).

On to `CN1CCN(C(c2ccccn2)c2cc(Cl)ccc2O)CC1` (stereo unspecified), for which the inhibition is 4.27% (inactive).

As to `CN1CCN(C(c2cccs2)c2cc(Cl)c3cccnc3c2O)CC1` (stereo unspecified), the inhibition is 24.7% (inactive).

Consider `CN1CCN(C(c2ccc(C(F)(F)F)cn2)c2ccc3cccnc3c2O)CC1` (stereo unspecified), for which the inhibition was 61.9% (inactive).

Turning to `Cc1cccnc1C(c1ccc2cccnc2c1O)N1CCN(C)CC1` (stereo unspecified), the inhibition was 66.1% (inactive).

Regarding `Cc1ccc2ccc(C(c3ccccn3)N3CCN(C)CC3)c(O)c2n1` (stereo unspecified), the inhibition was 24.3% (inactive).

`Oc1c(C(c2ccccn2)N2CCNCC2)cc(Cl)c2cccnc12` (stereo unspecified): the inhibition was 14.4% (inactive).

`Oc1c(C(NC2CCCCC2)c2ccccn2)ccc2cccnc12` (stereo unspecified): the inhibition is 36.3% (inactive).

Consider `Oc1c(C(c2ccccn2)N2CCCC2)ccc2cccnc12` (stereo unspecified), for which the inhibition is 45.2% (inactive).

For `Oc1c(C(c2ccccn2)N2CCN(c3ccccc3F)CC2)cc(Cl)c2cccnc12` (stereo unspecified), the inhibition was 27% (inactive).

For `COc1cccc(C(c2ccc3cccnc3c2O)N2CCN(C)CC2)n1` (stereo unspecified), the inhibition was -1.09% (inactive).

Regarding `Oc1c(C(c2ccccn2)N2CCC(Cc3ccccc3)CC2)cc(Cl)c2cccnc12` (stereo unspecified), the inhibition is 24.6% (inactive).

With `CN1CCN(C(c2ccccn2)c2cc(Cl)c3ccccc3c2O)CC1` (stereo unspecified), the inhibition is 12.1% (inactive).

Regarding `CN1CCN(C(c2nccs2)c2cc(Cl)c3cccnc3c2O)CC1` (stereo unspecified), the inhibition is 35% (inactive).

`Oc1c(CN2CCN(c3ccccc3)CC2)cc(Cl)c2cccnc12`: the inhibition is 21.3% (inactive).

In the case of `CN1CCN(C(c2ncccn2)c2ccc3cccnc3c2O)CC1` (stereo unspecified), the inhibition is -0.77% (inactive).

For `CCOC(c1ccccn1)c1cc(Cl)c2cccnc2c1O` (stereo unspecified), the inhibition was 21.5% (inactive).

Take `CN1CCN(C(c2ccc3cccnc3c2O)c2ncccc2C(F)(F)F)CC1` (stereo unspecified): the inhibition is 29.4% (inactive).

With `Cc1ccnc(C(c2ccc3cccnc3c2O)N2CCN(C)CC2)c1` (stereo unspecified), the inhibition is 54.8% (inactive).

Take `COc1ccnc(C(c2ccc3cccnc3c2O)N2CCN(C)CC2)c1` (stereo unspecified): the inhibition is 58.8% (inactive).

`Cc1ccc(C(c2ccc3cccnc3c2O)N2CCN(C)CC2)nc1` (stereo unspecified): the inhibition is 66.2% (inactive).

As for `CCN1CCN(C(c2ccccn2)c2cc(Cl)c3cccnc3c2O)CC1` (stereo unspecified), the inhibition is 67.9% (inactive).
